Assay [1] deals with T1, PPAR-γ (Homo sapiens, UniProt P37231).
T1 construct: expressed in transfected cells; host or cells: BE(2)C cells
T1 sequence (P37231 238-503 limits assumed): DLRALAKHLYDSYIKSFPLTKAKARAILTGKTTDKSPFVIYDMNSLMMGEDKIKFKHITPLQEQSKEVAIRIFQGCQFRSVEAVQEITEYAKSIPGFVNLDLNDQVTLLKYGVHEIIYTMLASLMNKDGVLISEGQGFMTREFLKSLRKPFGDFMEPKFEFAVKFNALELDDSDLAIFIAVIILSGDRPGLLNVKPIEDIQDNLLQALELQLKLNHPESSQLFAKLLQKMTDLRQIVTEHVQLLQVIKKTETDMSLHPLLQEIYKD
Nature of the assay: PPAR-γ activation, GAL4-PPAR-γ-LBD luciferase reporter in BE(2)C cells. The format is cell-based. To be noted: 20 h treatment, up to 50 μM, FIGS. 1A, 1B. As to the method: (§1) To examine whether amodiaquine acts as a ligand of […] or PPAR-α, three types of vectors were used.
(§2) The activation of luciferase expression was measured after BE(2)C cells were transformed with a GAL4-PPAR-γ-LBD plasmid or a GAL4-PPAR-α-LBD plasmid, a GAL4-luciferase vector, and a β-galactosidase vector for 6 hours, treated with amodiaquine for 20 hours, and then grown in a 5% CO2 incubator.

Assay [2] has as its system high fat-induced obesity mice. Nature of the assay: Intraperitoneal insulin tolerance test (IPITT) in high fat-induced obesity mice. The assay is classed as in vivo, mouse. The note with it: for blood glucose concentration after 2 hours vs fasting blood glucose (IPITT): HFD with simultaneous administration, 0.5 U/kg insulin i.p., FIG. 7B; for time of lowest blood glucose level after insulin (IPITT): administration after long-term HFD-induced obesity, FIG. 7C. The source says:
For measurement of the blood glucose concentration, an intraperitoneal insulin tolerance test (IPITT) was used.

The target of assay [3] is T2, PPAR-α (Homo sapiens, UniProt Q07869).
T2 construct: expressed in transfected cells; host or cells: BE(2)C cells
T2 sequence (Q07869 239-466 limits assumed): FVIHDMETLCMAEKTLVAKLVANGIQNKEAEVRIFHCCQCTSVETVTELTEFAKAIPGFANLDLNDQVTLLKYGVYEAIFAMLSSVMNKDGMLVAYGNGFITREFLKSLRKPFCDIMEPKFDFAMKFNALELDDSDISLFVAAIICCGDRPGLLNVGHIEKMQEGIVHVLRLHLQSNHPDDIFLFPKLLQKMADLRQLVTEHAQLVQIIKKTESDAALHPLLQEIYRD
Nature of the assay: PPAR-α activation, GAL4-PPAR-α-LBD luciferase reporter in BE(2)C cells. The format is cell-based. The note with it: 20 h treatment, up to 50 μM, FIGS. 1C, 1D. As to the method:
as §1, §2

Assay [4] concerns C2C12 myotube cells. Nature of the assay: Glucose uptake ([3H]2-DOG) in C2C12 myotube cells. The assay is classed as cell-based, mouse. The note with it: 10 μM or 30 μM, 24 h; compared with 50 μM rosiglitazone; FIG. 2. As for the experimental part: The phosphorylation of insulin receptors occurs due to signal transduction by insulin in muscle, adipose, liver cells, and the like, and accordingly, when various proteins located downstream are phosphorylated, glucose uptake increases, resulting in reduced blood glucose. Thus, a glucose uptake evaluation experiment was carried out to identify whether amodiaquine is effective for diabetes. C2C12 myoblasts, which are muscle cells, were cultured in DMEM containing 10% […]. When the cell density reached about 80% to about 90%, the medium was replaced with fresh 2% horse serum-containing DMEM, and cell differentiation of the C2C12 myoblasts into myotubes was induced to completely differentiate the cells, and then an experiment was carried out. […] Washing was repeated three times every twenty minutes. Subsequently, 1 ml of KRP buffer was injected, a solution (0.2 mM, 0.2 μCi) prepared by dissolving unlabeled 2-DOG and [^3H]2-DOG (Amersham Pharmacia) in KRP buffer was added to the resulting cells at 37° C. to allow treatment for exactly 10 minutes.

Assay [5] relates to KKAy mice. Nature of the assay: Fasting blood glucose in KKAy mice (amodiaquine). The assay is classed as in vivo, mouse. The note with it: 18 mg/kg oral daily for 6 weeks, control 132.4 mg/dl. As for the experimental part: (§3) 5-week-old KKAy purchased from Clea Japan was preliminarily raised for one week and then divided into two groups (5 individuals per group). The first group was administered PBS and set as a negative control, and the second group was orally administered amodiaquine at a concentration of 18 mg/kg daily for 6 weeks. […] For measurement of the blood glucose concentration, an intraperitoneal glucose tolerance test (IPGTT) was used.

Assay [6] concerns KKAy mice. In words: Intraperitoneal glucose tolerance test (IPGTT) in KKAy mice. The assay is classed as in vivo, mouse. The note with it: 18 mg/kg oral daily for 6 weeks, 2 g/kg glucose i.p., control 293.2 mg/dl. As to the method:
as §3

The subject of assay [7] is high fat-induced obesity mice. Nature of the assay: Oral glucose tolerance test (OGTT) in high fat-induced obesity mice. The assay is classed as in vivo, mouse. To be noted: HFD mice, 2 g/kg glucose oral; HFD control 180.5 mg/dl; FIG. 7A. As to the method:
After fasting for 16 hours, 2 g/kg of glucose was orally administered to each of the control and experimental group animals, and a blood glucose concentration was measured every 30 minutes for 2 hours. For measurement of the blood glucose concentration, an oral glucose tolerance test (OGTT) was used.

Assay [8] concerns high fat-induced obesity mice. In words: Fatty liver histology (hematoxylin & eosin) in high fat-induced obesity mice. The note with it: HFD mice, 14 weeks and 22 weeks; FIGS. 8A and 8B. The format is in vivo, mouse.
Description: Among the experimental animals designed in Example 5, mice in the high fat-induced obesity mouse group fed a high fat diet for 14 weeks with drug administration and high fat-induced obesity mice fed a high fat diet for 7 weeks with drug administration after obesity was induced by a high fat diet for 15 weeks were sacrificed by cervical spine dislocation, fixed on a dissection stand, and subjected to abdominal dissection with a scalpel to extract the liver. The extracted liver tissue was fixed in a 10% formalin solution to prevent contractile deformation. After 24 hours, the fixed tissue was washed with running water, and then general tissue dehydration, clearing, and penetration were performed thereon using an automatic tissue processor (6460B, Sakura, Japan) for 14 hours, and manufacture of paraffin blocks and cooling were performed using an automated embedding device (Tissue-Tex, Japan). The manufactured paraffin blocks were continuously sliced to a thickness of 4 m to 5 m in a vertical direction of the tissue using a rotary microtome 2040 (Japan), and attached to slides after processing using a floating hot water tank and a slide warming table. […]
Assay [9] concerns KKAy mice. Nature of the assay: Glycated hemoglobin (HbA1C) in KKAy mice (amodiaquine). The format is in vivo, mouse. The note with it: 18 mg/kg oral daily for 6 weeks, FIG. 4. As to the method:
As in Example 3, the first group of experimental animals was administered PBS and set as a control, and the second group was orally administered amodiaquine at a concentration of 18 mg/kg using a 1 ml syringe daily for 6 weeks.

The subject of assay [10] is high fat-induced obesity mice. Nature of the assay: Heat production, 4° C. cold test in high fat-induced obesity mice. The format is in vivo, mouse. To be noted: HFD 14 weeks, up to 6 hours at 4° C.; FIG. 6. As for the experimental part: To measure the heat production capability of mice fed a high fat diet for 14 weeks among the experimental animals designed in Example 5, a 4° C. cold test was performed (Spiegelman B. M. et al., Cell 92: 829-839, 1998). Hereinafter, the measurement method will be described in detail. A body temperature of mice in the high fat-induced obesity mouse group was measured before being exposed to 4° C., and recorded as an experiment start measurement temperature, and then the mice were exposed in a 4° C. room for up to 6 hours, followed by measurement of body temperature every hour. The body temperature was measured using a rectal thermometer for a mouse (Testo 925, Germany). A heat production measurement value indicated a temperature measured every hour.

Assay [11] deals with high fat-induced obesity mice. Nature of the assay: Body weight of high fat-induced obesity mice. The assay is classed as in vivo, mouse. To be noted: amodiaquine 20 mg/kg. As to the method:
To measure a decrease in body weight of mice by amodiaquine, 7-week-old male C57BL/6 mice (Charles River Laboratories, Tokyo, Japan) were purchased and raised under certain conditions (temperature: 22±2° C., relative humidity: 55±10%, and light/dark cycle: 12 hours). The mice were grouped into 7 individuals per group, freely fed water and diets in a cage, and then acclimated for 1 week before an experiment.
An average body weight was calculated by dividing the sum of weights of 7 mice per group by the number of mice.

For assay [12], the system named is ACOX, CPT-1, and mCAD genes. Nature of the assay: Expression of PPAR-α target genes in liver, muscle and adipose tissues (real-time PCR). The format is in vivo, mouse. The note with it: muscle, adipose tissues, HFD 14 weeks, FIGS. 9A-9C.
Description: Among the experimental animals designed in Example 5, mice of the high fat-induced obesity mouse groups fed a high fat diet for 14 weeks were sacrificed by cervical spine dislocation, fixed on a dissection stand, and then subjected to dissection with a scalpel to extract liver, muscle, and adipose tissues, and primer base sequences of (β-actin, ACOX, CPT-1, and mCAD are as follows:
After each tissue was disrupted using a grinding instrument, RNA was extracted using TRIzol, and cDNA was synthesized using reverse transcription polymerase chain reaction (RT PCR). […] The ACOX, CPT-1, and mCAD genes were calibrated with β-actin, thereby obtaining resultant values.

Turning to `Cc1cccc(Nc2cc(Cl)nc(SCC(=O)O)n2)c1C` [WY-14,643], in [1], the “PPAR-γ activity (luciferase expression)” value was “did not exhibit PPAR-γ activity”. The “blood glucose concentration after 2 hours vs fasting blood glucose (IPITT)” value in assay [2] was “maintained at a lower level than the fasting blood glucose concentration”.

For the molecule `CCN(CC)Cc1cc(Nc2ccnc3cc(Cl)ccc23)ccc1O` [amodiaquine], the “PPAR-α activity (luciferase expression)” value in assay [3] is reported as “high PPAR-α activity in a concentration-dependent manner”. The glucose uptake entry in assay [4] is given as “further increased as compared to that in the group treated with rosiglitazone”. Further, in assay [1], the “PPAR-γ activity (luciferase expression)” value is listed as “higher PPAR-γ activity in a concentration-dependent manner than that of the positive control treated with rosiglitazone”. Besides, in assay [5], the “fasting blood glucose concentration” value was 100.2 mg/dL. In addition, the “blood glucose concentration 2 hours after glucose loading (IPGTT)” value in assay [6] was found to be 207 mg/dL. Also, the “blood glucose concentration 2 hours after glucose loading (OGTT)” value in assay [7] is 139.1 mg/dL. Besides, in assay [2], the “blood glucose concentration after 2 hours vs fasting blood glucose (IPITT)” value is listed as “maintained at a lower level than the fasting blood glucose concentration”. In addition, the “time of lowest blood glucose level after insulin (IPITT)” value in [2] is 30 min. Further, the “liver appearance (fat accumulation, H&E)” value in [8] was “almost the same appearance as that of normal mice”. For the same molecule, the “glycated hemoglobin production as compared to control mice” value in [9] is recorded as “approximately 69%”. Also, in assay [10], the “body temperature on exposure to 4° C. (heat production)” value was “smaller decrease in body temperature than that of the high fat-induced obesity mice”. Moreover, the “body weight vs high fat-induced obesity mice” value in assay [11] (HFD with substance administration for 14 weeks, FIG. 5A) was “significantly lower than that of the high fat-induced obesity mice”; in [11] (substance administration for 7 weeks after obesity induced by HFD for 15 weeks, rosiglitazone 50 mg/kg, FIG. 5C), “significant decrease in body weight”. Also, in assay [12], the “increase in expression amounts of the ACOX, CPT-1, and mCAD genes as compared to the control” value is reported as at least 215 fold.

In the case of `CN(CCOc1ccc(CC2SC(=O)NC2=O)cc1)c1ccccn1` (centres unmarked) [rosiglitazone], the “time of lowest blood glucose level after insulin (IPITT)” value in assay [2] stood at 60 min.

Values taken from US10792280B2, “Pharmaceutical composition comprising amodiaquine and anti-diabetes drug as effective ingredient for prevention or treatment of diabetes” (NOVMETAPHARMA CO., LTD., priority 2016, dated 2020).
